# Source: ChEMBL document CHEMBL4602669, “Bishomoscalarane Sesterterpenoids from the Sponge Dysidea granulosa Collected in the South China Sea” (2020)
# Key:
# Type in all cases: functional
# Bel-7402 = assay: Antiproliferative activity against human Bel7402 cells by MTT assay
# K562 = assay: Antiproliferative activity against human K562 cells by MTT assay
# Jurkat = assay: Antiproliferative activity against human Jurkat cells by MTT assay
# A549 = assay: Antiproliferative activity against human A549 cells by MTT assay
# HCT-116 = assay: Antiproliferative activity against human HCT116 cells by MTT assay
Compound,GI50 (Bel-7402),GI50 (K562),GI50 (Jurkat),GI50 (A549),GI50 (HCT-116)
CCC(=O)O[C@@H](C)[C@@]1(C)CCC[C@@]2(C)[C@H]1CC[C@]1(C)[C@@H]2C[C@H](OC(=O)CC(O)CC)[C@]2(C)C3=C(CC[C@@H]12)[C@@H](C)OC3=O (stereo partly drawn),> 30 µM,> 30 µM,> 30 µM,> 30 µM,> 30 µM
COc1cccc2c1C(=O)c1c(O)c3c(c(O)c1C2=O)C[C@@](O)(C(=O)CO)C[C@@H]3O[C@H]1C[C@H](N)[C@H](O)[C@H](C)O1 [DOXORUBICIN],< 1 µM,< 1 µM,< 1 µM,< 1 µM,< 1 µM
CC(=O)C1=C[C@@]2(C)[C@@H](OC(=O)CC(C)O)C[C@H]3[C@@](C)(CC[C@@H]4[C@]3(C)CCC[C@@]43C[C@@H]3C)[C@@H]2C[C@H]1O (stereo partly drawn),11 µM,–,13 µM,8.1 µM,6.4 µM
CC(=O)O[C@@H](C)[C@@]1(C)CCC[C@@]2(C)[C@H]1CC[C@]1(C)[C@@H]2C[C@H](OC(=O)CC(C)O)[C@]2(C)C=C(C(C)=O)[C@H](O)C[C@H]21 (stereo partly drawn),> 30 µM,> 30 µM,> 30 µM,> 30 µM,> 30 µM
CC[C@@]1(C)CCC[C@]2(C)[C@H]3C[C@H](OC(=O)CC(C)O)[C@]45C[C@@H](O)[C@H]4C(C(C)=O)=CC[C@H]5[C@]3(C)CC[C@@H]12 (stereo partly drawn),14 µM,11 µM,–,12 µM,14 µM
CC/C1=C/CO[C@@]2(C)[C@@H](O)C[C@@H]3[C@@]4(C)CCC[C@](C)(CC)[C@@H]4CC[C@@]3(C)[C@@H]2CC1,> 30 µM,> 30 µM,> 30 µM,> 30 µM,> 30 µM
CCC(=O)O[C@H]1C[C@@H]2[C@@]3(C)CCC[C@@]4(C[C@@H]4C)[C@@H]3CC[C@@]2(C)[C@@H]2CCC3=C(C(=O)O[C@H]3C)[C@@]12C,> 30 µM,> 30 µM,> 30 µM,> 30 µM,> 30 µM
CCC(=O)O[C@@H](C)[C@@]1(C)CCC[C@@]2(C)[C@H]1CC[C@]1(C)[C@@H]2C[C@H](OC(=O)CC(O)CC)[C@]2(C)C3=C(CC[C@@H]12)[C@H](C)OC3=O (stereo partly drawn),> 30 µM,> 30 µM,> 30 µM,> 30 µM,> 30 µM
CC(=O)O[C@H]1C[C@@H]2[C@@]3(C)CCC[C@@]4(C[C@@H]4C)[C@@H]3CC[C@@]2(C)[C@@H]2CCC3=C(C(=O)O[C@@H]3C)[C@@]12C,> 30 µM,> 30 µM,> 30 µM,> 30 µM,> 30 µM
CC(=O)OC(C)CC(=O)O[C@H]1C[C@@H]2[C@@]3(C)CCC[C@](C)([C@H](C)OC(C)=O)[C@@H]3CC[C@@]2(C)[C@@H]2C[C@@H](O)C(C(C)=O)=C[C@@]12C (stereo partly drawn),> 30 µM,> 30 µM,> 30 µM,> 30 µM,> 30 µM
CC(O)CC(=O)O[C@H]1C[C@@H]2[C@@]3(C)CCC[C@@]4(C[C@@H]4C)[C@@H]3CC[C@@]2(C)[C@@H]2C[C@@H](O)C3=C([C@H](O)CC3=O)[C@@]12C (stereo partly drawn),> 30 µM,> 30 µM,> 30 µM,> 30 µM,> 30 µM
CC(=O)O[C@H]1C[C@@H]2[C@@]3(C)CCC[C@@]4(C[C@@H]4C)[C@@H]3CC[C@@]2(C)[C@@H]2CCC3=C(C(=O)O[C@H]3C)[C@@]12C,> 30 µM,> 30 µM,> 30 µM,> 30 µM,> 30 µM
CCC(O)CC(=O)O[C@H]1C[C@@H]2[C@@]3(C)CCC[C@](C)([C@H](C)OC(C)=O)[C@@H]3CC[C@@]2(C)[C@@H]2C[C@H](O)C(C(C)=O)=C[C@@]12C (stereo partly drawn),> 30 µM,> 30 µM,> 30 µM,> 30 µM,> 30 µM
CC[C@@]1(C)CCC[C@]2(C)[C@H]3C[C@H](O)[C@]4(C)C5=C(CC[C@H]4[C@]3(C)CC[C@@H]12)C(=O)C[C@H]5O,> 30 µM,> 30 µM,> 30 µM,> 30 µM,> 30 µM
CC[C@@]1(C)CCC[C@]2(C)[C@H]3C[C@H](OC(=O)CC(C)O)[C@]4(C)C=C(C(C)=O)[C@H](O)C[C@H]4[C@]3(C)CC[C@@H]12 (stereo partly drawn),> 30 µM,> 30 µM,> 30 µM,> 30 µM,> 30 µM
